We go through 38 molecules from patent US7943628B2, “Pyrimidine derivatives” (Pfizer Limited, priority 2005, dated 2011).

Molecules are shown by their SMILES. Like-named read-outs stand apart in the source and are kept apart here.

For this test, the target named is T1, histamine H4 receptor (Homo sapiens, UniProt Q9H3N8).
T1 construct: expressed in transfected cells; host or cells: CHO cells
Description: H4 binding, method 2 ([3H]-histamine binding with Ysi WGA beads on CHO cell membranes). The conditions noted are these: H4 binding, method 2, Ki calculated from IC50 (Cheng-Prussoff). Here is the method: Cell pellets from CHO cells expressing the histamine H4 receptor were homogenised in ice-cold 50 mM Tris-HCl/0.5 mM CaCl2 buffer containing a protease inhibitor cocktail (Roche®, United Kingdom) using a ground glass homogeniser. Homogenates were centrifuged at 48000 g for 30 min at 4° C. The membrane pellet was resuspended in fresh buffer and the centrifugation step was repeated as described above. The membrane pellet was resuspended in 50 mM Tris-HCl in the same volume as the original cell pellet. Aliquots of membrane preparations were stored at −80° C. and were used for [^3H]-Histamine binding experiments.
Cell membranes (15 μg/well) were pre-incubated for 120 min shaking at 4° C. with Ysi WGA beads (250 μg/well) in 50 mM Tris-HCl (pH 7.4) followed by centrifugation at 1500 rpm for 5 minutes and resuspension in 50 mM Tris-HCl (pH 7.4). The membrane/bead mixture (15 μg membrane/250 μg beads well) was incubated for 90 minutes shaking at room temperature with 6.5 nM [2,5-^3H] Histamine dihydrochloride (30-60 Ci/mmol) in 50 mM Tris-HCl (pH 7.4), with or without competing H4 ligands. Non-specific binding was defined with 10 μM JNJ7777120. Bound radiolabel was determined using scintillation counting techniques after 90 minutes.

Broadly, the Ki is the dissociation constant of the complex between target and ligand, obtained from inhibition or displacement.

T1 sequence (Q9H3N8 whole entry): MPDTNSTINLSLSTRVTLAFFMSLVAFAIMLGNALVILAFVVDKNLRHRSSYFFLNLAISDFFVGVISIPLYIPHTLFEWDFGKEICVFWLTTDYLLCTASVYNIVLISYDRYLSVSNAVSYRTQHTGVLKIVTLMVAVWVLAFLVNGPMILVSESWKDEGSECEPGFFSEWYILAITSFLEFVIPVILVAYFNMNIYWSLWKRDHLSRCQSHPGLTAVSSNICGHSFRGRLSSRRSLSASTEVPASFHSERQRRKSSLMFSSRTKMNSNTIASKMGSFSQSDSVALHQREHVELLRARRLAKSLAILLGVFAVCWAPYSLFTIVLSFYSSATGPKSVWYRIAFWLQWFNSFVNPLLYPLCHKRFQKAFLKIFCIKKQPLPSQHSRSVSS

Consider `CCNc1cc(N2C[C@H]3CN(C)C[C@H]3C2)nc(N)n1` [Example 36, N^4-Ethyl-6-[(3aR*,6aS*)-5-methylhexahydro-pyrrolo[3,4-c]pyrrol-2(1H)-yl]pyrimidine-2,4-diamine], for which, under “read-out: Method 2 (Ki (nM))”, the Ki is 1620 nM.

With `CNC1CN(c2cc(NCc3cccc(C)c3)nc(N)n2)C1` [Example 83, 6-[3-(Methylamino)azetidin-1-yl]-N^4-(3-methylbenzyl)pyrimidine-2,4-diamine], the Ki (read-out: Method 2 (Ki (nM))) is 62.3 nM.

As for `CNC1CN(c2cc(NCc3cccc(OC)c3)nc(N)n2)C1` [Example 66, N^4-(3-Methoxy-benzyl)-6-(3-methylamino-azetidin-1-yl)-pyrimidine-2,4-diamine], under “read-out: Method 2 (Ki (nM))”, the inhibitory constant (Ki) was 61.1 nM.

In the case of `CCCNc1cc(N2C[C@H]3CN(C)C[C@H]3C2)nc(N)n1` [Example 34, 6-[(3aR*,6aS*)-5-Methylhexahydropyrrolo[3,4-c]pyrrol-2(1H)-yl]-N^4-propylpyrimidine-2,4-diamine], for the setting “read-out: Method 2 (Ki (nM))”, the Ki is 452 nM.

For the molecule `CN1C[C@@H]2CN(c3cc(NCC(C)(C)C)nc(N)n3)C[C@@H]2C1` [Example 39, N^4-(2,2-Dimethylpropyl)-6-[(3aR*,6aS*)-5-methylhexahydro-pyrrolo[3,4-c]pyrrol-2(1H)-yl]pyrimidine-2,4-diamine], the inhibition constant Ki (Method 2 (Ki (nM))) is 88.9 nM.

In the case of `CC(C)CNc1cc(N2C[C@H]3CCCN[C@H]3C2)ncn1` (relative stereo) [Example 125, N-Isobutyl-6-[(4aR*,7aR*)-octahydro-6H-pyrrolo[3,4-b]pyridin-6-yl]pyrimidin-4-amine], the Ki (read-out: Method 2 (Ki (nM))) is 223 nM.

As for `CNC1CN(c2cc(NCc3cccc(Cl)c3)nc(N)n2)C1` [Example 86, N^4-(3-Chlorobenzyl)-6-[3-(methylamino)azetidin-1-yl]pyrimidine-2,4-diamine], where the note is “read-out: Method 2 (Ki (nM))”, the inhibitory constant (Ki) was 142 nM.

As for `Nc1nc(NC2CC2)cc(N2C[C@H]3CCCN[C@H]3C2)n1` (racemic) [Example 31, N^4-Cyclopropyl-6-[(4aR*,7aR*)-octahydro-6H-pyrrolo[3,4-b]pyridin-6-yl] pyrimidine-2,4-diamine], the Ki (Method 2 (Ki (nM))) was 21.1 nM.

For `Nc1nc(NCC2CCCC2)cc(N2C[C@H]3CCCN[C@H]3C2)n1` (racemic) [Example 33, N^4-(Cyclopentylmethyl)-6-[(4aR*,7aR*)-octahydro-6H-pyrrolo[3,4-b]pyridin-6-yl] pyrimidine-2,4-diamine], the Ki (Method 2 (Ki (nM))) is 84.1 nM.

For the molecule `Cc1c(NCC(C)C)ncnc1N1CCN(C)CC1` [Example 116, N-Isobutyl-5-methyl-6-(4-methylpiperazin-1-yl)pyrimidin-4-amine], the Ki (read-out: Method 2 (Ki (nM))) is 426 nM.

As for `CCNc1cc(N2CC[C@@H](NC)C2)ncn1` [Example 13, N-Ethyl-6-[(3R)-3-(methyl-amino)pyrrolidin-1-yl]pyrimidin-4-amine], for the setting “read-out: Method 2 (Ki (nM))”, the inhibition constant (Ki) is 51.8 nM.

Regarding `CCNc1cc(N2CC(NC)C2)ncn1` [Example 48, N-Ethyl-6-[3-(methylamino)azetidin-1-yl]pyrimidin-4-amine], where the note is “read-out: Method 2 (Ki (nM))”, the Ki was 49.7 nM.

Take `CC(C)CCNc1cc(N2CCN(C)CC2)nc(N)n1` [Example 108, N^4-(3-Methylbutyl)-6-(4-methylpiperazin-1-yl)pyrimidine-2,4-diamine]: under “read-out: Method 2 (Ki (nM))”, the Ki is 8.42 nM.

For the molecule `CC(C)(C)CCNc1cc(N2C[C@H]3CCCN[C@H]3C2)ncn1` (racemic) [Example 328, N-(3,3-Dimethylbutyl)-6-[(4aR*,7aR*)-octahydro-6H-pyrrolo[3,4-b]pyridin-6-yl]pyrimidin-4-amine], the Ki (read-out: Method 2 (Ki (nM))) was 554 nM.

In the case of `CNC1CN(c2cc(NC(C)C)ncn2)C1` [Example 46, N-Isopropyl-6-[3-(methylamino)azetidin-1-yl]pyrimidin-4-amine], where the note is “read-out: Method 2 (Ki (nM))”, the Ki is 40.1 nM.

Regarding `CC(C)CNc1cc(N2C[C@H]3CN(C)C[C@H]3C2)nc(N)n1` [Example 37, N^4-Isobutyl-6-[(3aR*,6aS*)-5-methylhexahydro-pyrrolo[3,4-c]pyrrol-2(1H)-yl]pyrimidine-2,4-diamine], the Ki (read-out: Method 2 (Ki (nM))) is 181 nM.

As to `CNC1CN(c2cc(NCc3ccc(F)cc3)nc(N)n2)C1` [Example 90, N^4-(4-Fluorobenzyl)-6-[3-(methylamino)azetidin-1-yl]pyrimidine-2,4-diamine], under “read-out: Method 2 (Ki (nM))”, the Ki is 6.42 nM.

With `CNC1CN(c2cc(NCc3ccccc3)nc(N)n2)C1` [Example 79, N^4-Benzyl-6-[3-(methylamino)azetidin-1-yl]pyrimidine-2,4-diamine], the Ki (read-out: Method 2 (Ki (nM))) was 11.2 nM.

Consider `CC(C)Nc1cc(N2C[C@H]3CCCN[C@H]3C2)nc(N)n1` (racemic) [Example 24, N^4Isopropyl-6-[(4aR*,7aR*)-octahydro6H-pyrrolor[3,4-b]pyridin-6-yl]pyrimidine-2,4-diamine], for which the inhibitory constant (Ki) (Method 2 (Ki (nM))) was 30.8 nM.

In the case of `CC(C)CCNc1cc(N[C@@H]2CCNC2)ncn1` [Example 329, N-(3-Methylbutyl)-N′-[(3R)-pyrrolidin-3-yl]pyrimidine-4,6-diamine], the Ki (read-out: Method 2 (Ki (nM))) is 1420 nM.

Take `CN1C[C@@H]2CN(c3cc(NC4CCC4)nc(N)n3)C[C@@H]2C1` [Example 43, N^4-Cyclobutyl-6-[(3aR*,6aS*)-5-methylhexahydro-pyrrolo[3,4-c]pyrrol-2(1H)-yl]pyrimidine-2,4-diamine]: the Ki (read-out: Method 2 (Ki (nM))) is 236 nM.

As for `CNC1CN(c2cc(NCc3ccccc3Cl)ncn2)C1` [Example 52, N-(2-Chlorobenzyl)-6-[3-(methylamino)azetidin-1-yl]pyrimidin-4-amine], for the setting “read-out: Method 2 (Ki (nM))”, the Ki is 99.7 nM.

For the molecule `C[C@@H]1CN(c2cc(NCCC(C)(C)C)nc(N)n2)CCN1` [Example 93, N^4-(3,3-Dimethylbutyl)-6-[(3R)-3-methylpiperazin-1-yl]pyrimidine-2,4-diamine], under “read-out: Method 2 (Ki (nM))”, the Ki was 256 nM.

For the molecule `CN1C[C@@H]2CN(c3cc(NC4CC4)nc(N)n3)C[C@@H]2C1` [Example 42, N^4-Cyclopropyl-6-[(3aR*,6aS*)-5-methylhexahydro-pyrrolo[3,4-c]pyrrol-2(1H)-yl]pyrimidine-2,4-diamine], where the note is “read-out: Method 2 (Ki (nM))”, the inhibition constant (Ki) was 433 nM.

On to `Nc1nc(NCC2CC2)cc(N2C[C@H]3CCCN[C@H]3C2)n1` (racemic) [Example 28, N^4-(Cyclopropylmethyl)-6-[(4aR*,7aR*)-octahydro-6H-pyrrolo[3,4-b]pyridin-6-yl] pyrimidine-2,4-diamine], for which the Ki (Method 2 (Ki (nM))) was 21.3 nM.

Consider `CNC1CN(c2cc(NCc3ccc(C#N)cc3)nc(N)n2)C1` [Example 77, 4-[({2-Amino-6-[3-(methyl-amino)azetidin-1-yl]pyrimidin-4-yl}amino)methyl]benzonitrile], for which the Ki (read-out: Method 2 (Ki (nM))) is 255 nM.

`CN[C@@H]1CCN(c2cc(NCCC(C)(C)C)ncn2)C1` [Example 109, N-(3,3-Dimethylbutyl)-6-[(3R)-3-(methylamino)pyrrolidin-1-yl]pyrimidin-4-amine]: for the setting “read-out: Method 2 (Ki (nM))”, the Ki was 42.7 nM.

For the molecule `CN1CCN(c2cc(NCc3cccc(F)c3)nc(N)n2)CC1` [Example 91, N^4-(3-Fluorobenzyl)-6-(4-methylpiperazin-1-yl)pyrimidine-2,4-diamine], the inhibitory constant (Ki) (read-out: Method 2 (Ki (nM))) was 386 nM.

Turning to `CC(C)(C)CNc1cc(N2C[C@@H]3[C@@H](N)[C@@H]3C2)nc(N)n1` [Example 126, 6-[(1R*,5S*,6s*)-6-Amino-3-azabicyclo[3.1.0]hex-3-yl]-N^4-(2,2-dimethylpropyl)pyrimidine-2,4-diamine], the Ki (read-out: Method 2 (Ki (nM))) was 611 nM.

`CN(C)[C@@H]1CCN(c2cc(NCCC(C)(C)C)ncn2)C1` [Example 18, 6-[(3R)-3-(Dimethylamino)pyrrolidin-1-yl]-N-(3,3-dimethylbutyl)pyrimidin-4-amine]: the inhibition constant Ki (read-out: Method 2 (Ki (nM))) is 387 nM.

For `CCNc1cc(N2CCN[C@H](C)C2)nc(N)n1` [Example 97, N^4-Ethyl-6-[(3R)-3-methylpiperazin-1-yl]pyrimidine-2,4-diamine], the Ki (Method 2 (Ki (nM))) is 43.7 nM.

In the case of `CNC1CN(c2cc(NCc3cccc(C(F)(F)F)c3)nc(N)n2)C1` [Example 80, 6-[3-(Methylamino)azetidin-1-yl]-N^4-[3-(trifluoromethyl)benzyl]pyrimidine-2,4-diamine], for the setting “read-out: Method 2 (Ki (nM))”, the Ki was 103 nM.

On to `CNC1CN(c2cc(NCc3ccccc3F)nc(N)n2)C1` [Example 78, N^4-(2-Fluorobenzyl)-6-[3-(methylamino)azetidin-1-yl]pyrimidine-2,4-diamine], for which, under “read-out: Method 2 (Ki (nM))”, the Ki was 3.66 nM.

`CNC1CN(c2cc(NCc3ccc(F)cc3)ncn2)C1` [Example 47, N-(4-Fluorobenzyl)-6-[3-(methylamino)azetidin-1-yl]pyrimidin-4-amine]: the Ki (read-out: Method 2 (Ki (nM))) is 256 nM.

In the case of `CC(C)(C)CCNc1cc(N2CC(N)C2)ncn1` [Example 118, 6-(3-Aminoazetidin-1-yl)-N-(3,3-dimethylbutyl)pyrimidin-4-amine], the inhibitory constant (Ki) (read-out: Method 2 (Ki (nM))) is 1090 nM.

As for `CC(C)CCNc1cc(N2C[C@H]3CCCN[C@H]3C2)nc(N)n1` (racemic) [Example 29, N^4-(3-Methylbutyl)-6-[(4aR*, 7aR*)-octahydro-6H-pyrrolo [3,4-b]pyridin-6-yl] pyrimidine-2,4-diamine], where the note is “Method 2 (Ki (nM))”, the inhibition constant Ki is 82.9 nM.

For the molecule `C[C@H]1CN(c2cc(NCCC(C)(C)C)nc(N)n2)CCN1` [Example 94, N^4-(3,3-Dimethylbutyl)-6-[(3S)-3-methylpiperazin-1-yl]pyrimidine-2,4-diamine], the Ki (read-out: Method 2 (Ki (nM))) is 61.1 nM.

As for `CNC1CN(c2cc(NC3CC3)nc(N)n2)C1` [Example 72, N^4-Cyclopropyl-6-[3-(methylamino)azetidin-1-yl]pyrimidine-2,4-diamine], the Ki (read-out: Method 2 (Ki (nM))) is 11.9 nM.
